Data on two compounds can be found in patent US20260364030A1, “NOVEL SELECTIVE INHIBITORS OF LYSYL OXIDASES” (Syntara Limited, priority 2022, published 2026).

Structures are written as SMILES. Bounds are passed on as bounds.

Data set [1] has as its system massive, pedunculated keloids. The following applies: BAPN or penicillamine, and colchicine; following excision of keloid and grafting; cited from earlier work.
A further data set relates to LOX. The following applies: CIA rats; cited from earlier work.
Data set [2] deals with SiHa cervical cancer cells. The following applies: in vitro, hypoxic/anoxic conditions; cited from earlier work.
Another data set concerns the target T1, Human MAO-A (Homo sapiens, UniProt P21397).
T1 construct: purchased Sigma Aldrich
As to the kind of experiment: Inhibition of human recombinant MAO-A. As to conditions: 2 hours incubation; substrate tyramine 200 μM. It counts as biochemical.

For a further data set, the target named is T2, Human DAO (Homo sapiens, UniProt P19801).
T2 construct: Prof; Boehm, Department of Clinical Pharmacology, Medical University, Vienna (gift)
In words: Inhibition of human recombinant DAO. The data set is classed as biochemical. As to conditions: 2 hours incubation; substrate putrescine 200 μM.

Another data set concerns the target T3, LOXL2 (Homo sapiens, UniProt Q9Y4K0).
T3 sequence (Q9Y4K0 26-774): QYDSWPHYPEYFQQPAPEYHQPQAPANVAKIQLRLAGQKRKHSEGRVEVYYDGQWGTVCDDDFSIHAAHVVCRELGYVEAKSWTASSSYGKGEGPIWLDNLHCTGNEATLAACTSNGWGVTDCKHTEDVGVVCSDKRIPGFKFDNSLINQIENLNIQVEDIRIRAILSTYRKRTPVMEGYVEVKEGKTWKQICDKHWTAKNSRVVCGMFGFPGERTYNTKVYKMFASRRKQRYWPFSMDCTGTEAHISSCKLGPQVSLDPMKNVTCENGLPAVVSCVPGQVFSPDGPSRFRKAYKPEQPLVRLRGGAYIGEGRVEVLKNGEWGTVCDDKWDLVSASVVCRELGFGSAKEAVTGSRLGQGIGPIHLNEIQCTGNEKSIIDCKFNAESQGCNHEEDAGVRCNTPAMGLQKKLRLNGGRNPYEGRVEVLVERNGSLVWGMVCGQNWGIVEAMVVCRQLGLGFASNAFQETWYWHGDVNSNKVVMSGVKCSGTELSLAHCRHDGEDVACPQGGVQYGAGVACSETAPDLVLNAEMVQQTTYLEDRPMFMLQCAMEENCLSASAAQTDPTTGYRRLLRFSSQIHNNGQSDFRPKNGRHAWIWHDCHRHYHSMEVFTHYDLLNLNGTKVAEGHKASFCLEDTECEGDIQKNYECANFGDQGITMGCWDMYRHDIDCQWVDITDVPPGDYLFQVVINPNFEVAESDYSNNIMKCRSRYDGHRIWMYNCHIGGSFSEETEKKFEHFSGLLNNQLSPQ
As to the kind of experiment: Time-dependent inhibition of LOXL2, Amplex Red oxidation assay. The data set is classed as biochemical. The following applies: for IC50: 37 °C. On the procedure:
The time dependent inhibitory effects of the Compound 1 of the present invention were tested against the given LOXL1 preparation and LOXL2 preparation using a method based on the detection of hydrogen peroxide with an Amplex Red oxidation assay [Zhou et al. 1997]. The assay was developed for use in either 384 or 96 well format. Briefly, in a standard black, clear bottom 384 well plate assay 25 µL of a dilution of any of the isoenzymes and orthologues in 1.2 M urea, 50 mM sodium borate buffer (pH 8.2) were added into each well in the presence of […] and 0.5 mM pargyline (to inhibit SSAO and MAO-B and MAO-A, respectively; not necessary if the enzyme is from a recombinant or purified form). Test compound (Compound 1) was dissolved in DMSO and tested in a Concentration Response Curve (CRC) with 11 data points, typically in the micromolar or nanomolar range after incubation with the enzyme for different time points at 37 °C. 25 μL of a reaction mixture containing twice the KM concentration of putrescine (Sigma Aldrich, e.g. 20 mM for LOXL1 or 10 mM for LOXL2), 120 µM Amplex Red (Thermo Fisher Scientific) and 1.5 U/mL horseradish peroxidase (Sigma Aldrich) prepared in 1.2 M urea, 50 mM sodium borate buffer (pH 8.2) were then added to the corresponding wells. The fluorescence (RFU) was read every 2.5 min for 30 min at 37 °C, excitation 544 nm and emission 590 nm (Optima; BMG labtech). The slope/min of the kinetics for each well was calculated using MARS data analysis software (BMG labtech) and this value was used to deduce the IC50 value (Dotmatics).

The nature of data set [3]: Solubility and stability of test item in DMSO vehicle. The data set is classed as physicochemical. As to conditions: for Stability in vehicle DMSO: at 20 μg/mL and 50000 μg/mL. On the procedure: The test item was soluble in DMSO at 50 mg/mL and was used as the vehicle of choice in the mutation assay.
For data set [4], the system named is Salmonella typhimurium TA100. As to the kind of experiment: Bacterial reverse mutation test, preliminary toxicity test (direct plate incorporation). Here is the method:
In the preliminary toxicity test, for selection of test doses for the mutation assay, Salmonella typhimurium, TA100 was exposed to the test item at 39.0625, 78.125, 156.25, 312.5, 625, 1250, 2500 and 5000 μg/plate along with a DMSO control using direct plate incorporation.

For data set [5], the system named is TA98, TA100, TA1535 and TA1537 strains of Salmonella typhimurium and WP2uvrA (pKM101) strain of Escherichia coli. As to the kind of experiment: Bacterial Reverse Mutation Test, initial and confirmatory mutation assay. On the procedure: The test item Compound 1 was tested for its mutagenic potential in the bacterial reverse mutation assay. The study was conducted using TA98, TA100, TA1535 and TA1537 strains of Salmonella typhimurium and WP2uvrA (pKM101) strain of Escherichia coli in three phases; a preliminary toxicity test, an initial mutation assay and a confirmatory mutation assay. The bacterial tester strains were exposed to the test item in the presence and absence of metabolic activation system (S9 fraction prepared from Aroclor 1254 induced rat liver).
The bacterial tester strains were exposed to the test item in triplicate at 50, 158, 500, 1581 and 5000 μg/plate. The initial mutation assay was conducted using the direct plate incorporation mode of exposure whereas the confirmatory mutation assay was carried out using the pre-incubation mode of exposure. The vehicle control (DMSO) and the appropriate positive controls were tested simultaneously. The mean and standard deviation of numbers of revertant colonies were calculated for each test dose and the controls for all the tester strains.

T1 sequence (P21397 whole entry): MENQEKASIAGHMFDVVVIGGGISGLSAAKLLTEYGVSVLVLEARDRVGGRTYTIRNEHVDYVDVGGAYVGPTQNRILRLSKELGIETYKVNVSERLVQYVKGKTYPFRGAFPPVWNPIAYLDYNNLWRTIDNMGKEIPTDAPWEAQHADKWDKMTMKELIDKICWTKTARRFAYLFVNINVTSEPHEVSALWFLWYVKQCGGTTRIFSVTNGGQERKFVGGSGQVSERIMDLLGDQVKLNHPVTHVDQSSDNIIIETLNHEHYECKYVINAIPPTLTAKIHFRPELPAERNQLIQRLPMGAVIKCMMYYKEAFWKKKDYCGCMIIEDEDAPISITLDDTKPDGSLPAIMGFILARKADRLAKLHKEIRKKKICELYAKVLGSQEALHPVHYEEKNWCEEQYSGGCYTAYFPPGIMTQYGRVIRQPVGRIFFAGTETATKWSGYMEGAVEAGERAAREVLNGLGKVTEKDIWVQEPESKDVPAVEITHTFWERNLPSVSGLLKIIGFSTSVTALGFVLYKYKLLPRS
T2 sequence (P19801 20-751): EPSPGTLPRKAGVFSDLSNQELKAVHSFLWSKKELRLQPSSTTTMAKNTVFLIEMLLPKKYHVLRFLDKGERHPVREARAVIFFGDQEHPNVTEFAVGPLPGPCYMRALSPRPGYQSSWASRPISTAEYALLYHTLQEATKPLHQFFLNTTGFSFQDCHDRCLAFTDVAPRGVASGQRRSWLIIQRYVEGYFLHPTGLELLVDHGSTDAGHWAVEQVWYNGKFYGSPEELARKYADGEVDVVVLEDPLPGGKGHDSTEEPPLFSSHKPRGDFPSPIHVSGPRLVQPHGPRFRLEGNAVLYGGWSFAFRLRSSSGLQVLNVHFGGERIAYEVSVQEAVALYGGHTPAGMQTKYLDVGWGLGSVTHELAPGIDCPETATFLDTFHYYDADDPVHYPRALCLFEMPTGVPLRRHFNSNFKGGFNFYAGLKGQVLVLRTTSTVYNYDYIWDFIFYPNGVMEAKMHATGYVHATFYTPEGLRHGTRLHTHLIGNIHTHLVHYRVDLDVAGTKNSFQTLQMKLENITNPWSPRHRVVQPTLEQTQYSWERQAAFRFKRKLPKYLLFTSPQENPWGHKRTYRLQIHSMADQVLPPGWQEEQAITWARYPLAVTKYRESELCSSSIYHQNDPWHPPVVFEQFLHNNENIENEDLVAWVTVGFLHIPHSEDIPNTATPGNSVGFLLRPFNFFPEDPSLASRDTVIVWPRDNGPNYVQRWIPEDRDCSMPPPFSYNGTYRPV

As to `N#CCCN` [BAPN, β-aminopropionitrile, reference compound], the “Effect on surface scarring” value in data set [1] was “measurable beneficial effect on surface scarring”. For the same compound, the “Effect on inflammation, synovial hyperplasia, angiogenesis, MMP-2 and MMP-9 expression” value in the data set with LOX was “attenuate inflammation, synovial hyperplasia, angiogenesis and expression of MMP-2 and MMP-9”. The “Invasion of SiHa cells” value in data set [2] was “repressed”.
In the case of `NC/C(=C\F)CS(=O)(=O)c1ccccc1` [Compound 1, (E)-3-fluoro-2-((phenylsulfonyl)methyl)prop-2-en-1-amine], the IC50 on Human MAO-A is > 100000 nM; at Human DAO, > 100000 nM; at LOXL2 (0′ incubation) it was 14700 nM; on LOXL2 (15′ incubation), 5580 nM; against LOXL2 (30′ incubation), 1710 nM; against LOXL2 (1 h incubation), 890 nM. In addition, the values for the IC50 on LOXL2 (2 h incubation) and on LOXL2 (4 h incubation) were 410 nM and 310 nM, respectively. Moreover, the “Time dependent LOXL2 inhibition” value on LOXL2 (apparent potency increasing with time) was “time dependent LOXL1 and LOXL2 inhibition”. In addition, in [3] (dmso, organic solvent or mixture), the solubility was ≥ 50 mg/mL. Besides, the entries for the “Stability in vehicle DMSO” value in data set [3] (refrigerated temperature) and in data set [3] (room temperature) were ≥ 4 days and ≥ 0.25 days, respectively. Also, the “Toxicity to the tester strain (bacterial background lawn, revertant colony counts)” value in [4] (39.0625-5000 μg/plate, presence and absence of metabolic activation) was “did not exhibit toxicity to the tester strain”. Also, in data set [4] (up to 5000 μg/plate, presence or absence of metabolic activation), the “Precipitation on the basal agar plates” value is recorded as “did not precipitate on the basal agar plates”. Also, in data set [5] (50-5000 μg/plate, with and without metabolic activation (S9), initial and confirmatory assay, all tester strains), the “Mutagenic increase in revertant colonies” value is “did not show any positive mutagenic increase”. In [5] (up to the top dose 5000 μg/plate), the Mutagenicity result is “not mutagenic”.
